Measurements as given in ChEMBL document CHEMBL1148709, “Derivatives of (-)-7-methyl-2-(5-(pyridinyl)pyridin-3-yl)-7-azabicyclo[2.2.1]heptane are potential ligands for positron emission tomography imaging of extrathalamic nicotinic acetylcholine receptors” (J Med Chem, 2007).
Activity calls are given as the source filed them. The calls are words filed in the database; no cut-off is given here.

Key:
[1] = physchem; details: octanol/water, pH 7.4
Description: Distribution coefficient, log D at pH 7.4 by shake-flask method

[2] = test system: Mus musculus; test: Induction of straub tail in CD1 mouse at 2 umol/kg; format: functional, organism-based
[3] = test system: Mus musculus; test: Induction of fast breathing in CD1 mouse at 2 umol/kg; format: functional, organism-based
[4] = Ratio of drug level in thalamus to cerebellum in Wistar rat after 90 mins; format: ADME, tissue-based; details: in vivo, 1.5 h
[5] = test system: Mus musculus; test: Toxicity assessed as induction of death in CD1 mouse at 2 umol/kg; format: organism-based; details: in vivo
[6] = Ratio of drug level in frontal cortex to cerebellum in baboon after 180 mins; format: ADME, tissue-based; details: papio hamadryas, in vivo, 3 h
[7] = Ratio of drug level in thalamus to cerebellum in baboon after 180 mins; format: ADME, tissue-based; details: papio hamadryas, in vivo, 3 h
[8] = Ratio of drug level in pans to cerebellum in baboon after 180 mins; format: ADME, tissue-based; details: papio hamadryas, in vivo, 3 h

Which logD [1] does the source give for `CN1[C@@H]2CC[C@@H]1[C@@H](c1cnc(F)c(-c3ccc(F)nc3)c1)C2` (racemic) here?
The logD was 0.96.

With `CN1[C@@H]2CC[C@@H]1[C@@H](c1cnc(Cl)c(-c3ccc(F)nc3)c1)C2` (single isomer, unassigned) as the compound, how does the logD [1] read?
Its logD is 1.42.

Which results are given for `CN1[C@@H]2CC[C@@H]1[C@@H](c1cncc(-c3ccc(F)nc3)c1)C2` (stereo in doubt; (-)-24d) [listing 1 of 2 here]?
Activity [2]: Active; Activity [3]: Active

With `[11CH3]N1[C@@H]2CC[C@@H]1[C@@H](c1cnc(Cl)c(-c3ccnc(F)c3)c1)C2` (racemic) as the compound, how does the Ratio [4] read?
The Ratio was 2.2.

Which logD [1] does the source give for `Fc1ccc(-c2cc([C@H]3C[C@H]4CC[C@H]3N4)cnc2Cl)cn1` (racemic) here?
Its logD is 0.68.

With `CN1[C@@H]2CC[C@@H]1[C@@H](c1cncc(-c3ccc(F)nc3)c1)C2` (racemic) as the compound, how does the logD [1] read?
Its logD is 0.45.

For `CN1[C@@H]2CC[C@@H]1[C@@H](c1cnc(Cl)c(-c3ccnc(F)c3)c1)C2` (racemic), which logD [1] is on record?
The logD was 1.26.

With `[11CH3]N1[C@@H]2CC[C@@H]1[C@@H](c1cnc(Cl)c(-c3ccnc(F)c3)c1)C2` as the compound, how does the Ratio [4] read?
The Ratio was 6.5.

With `CN1[C@@H]2CC[C@@H]1[C@@H](c1cncc(-c3ccc(F)nc3)c1)C2` (stereo in doubt; (-)-24d) [listing 2 of 2 here] as the compound, how does the Activity [5] read?
The Activity was “Non-toxic”.

With `CN1[C@@H]2CC[C@@H]1[C@@H](c1cncc(-c3ccc([18F])nc3)c1)C2` as the compound, how does the Ratio [6] read?
Its Ratio is 2.4.

What about the Ratio [7] of the same compound?
The Ratio was 6.

What about the Ratio [8] of the same compound?
Its Ratio is 2.4.

For `CN1[C@@H]2CC[C@@H]1[C@@H](c1cnc(F)c(-c3ccc(C#N)nc3)c1)C2` (racemic), which logD [1] is on record?
Its logD is 0.64.
